# In PubChem BioAssay (NCI):
#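 The concentration for 50% growth inhibition is given as GI50. TGI: total growth inhibition.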
# Assays:
# Assay in all cases: DTP human tumour cell line panel, 384-well format
# HOP-62 NSCLC = test system: HOP-62 NSCLC
# OVCAR-4 ovarian = test system: OVCAR-4 ovarian
# A498 renal = test system: A498 renal
# SK-OV-3 ovarian = test system: SK-OV-3 ovarian
# UACC-257 melanoma = test system: UACC-257 melanoma
# HS 578T breast = test system: HS 578T breast
# OVCAR-8 ovarian = test system: OVCAR-8 ovarian
# SK-MEL-2 melanoma = test system: SK-MEL-2 melanoma
# TK-10 renal = test system: TK-10 renal
# IGROV1 ovarian = test system: IGROV1 ovarian
# COLO 205 colon = test system: COLO 205 colon
# SF-268 CNS = test system: SF-268 CNS
# SW-620 colon = test system: SW-620 colon
# RXF 393 renal = test system: RXF 393 renal
# HOP-92 NSCLC = test system: HOP-92 NSCLC
# SNB-75 CNS = test system: SNB-75 CNS
# SF-539 CNS = test system: SF-539 CNS
# ACHN renal = test system: ACHN renal
# PC-3 prostate = test system: PC-3 prostate
# K-562 leukemia = test system: K-562 leukemia
# SF-295 CNS = test system: SF-295 CNS
# MDA-MB-468 breast = test system: MDA-MB-468 breast
# RPMI-8226 leukemia = test system: RPMI-8226 leukemia
# NCI-H522 lung = test system: NCI-H522 lung
# HCC-2998 colon = test system: HCC-2998 colon
# BT-549 breast = test system: BT-549 breast
# SR leukemia = test system: SR leukemia
# SNB-19 CNS = test system: SNB-19 CNS
# U251 glioblastoma = test system: U251 glioblastoma
# UO-31 renal = test system: UO-31 renal
# NCI-H460 NSCLC = test system: NCI-H460 NSCLC
# OVCAR-5 ovarian = test system: OVCAR-5 ovarian
# NCI-H322M lung = test system: NCI-H322M lung
# NCI-H226 lung = test system: NCI-H226 lung
# UACC-62 melanoma = test system: UACC-62 melanoma
# LOX IMVI melanoma = test system: LOX IMVI melanoma
# KM12 colon = test system: KM12 colon
# A549 NSCLC = test system: A549 NSCLC
# NCI-H23 lung = test system: NCI-H23 lung
# MALME-3M melanoma = test system: MALME-3M melanoma
# SN12C renal = test system: SN12C renal
# SK-MEL-5 melanoma = test system: SK-MEL-5 melanoma
# SK-MEL-28 melanoma = test system: SK-MEL-28 melanoma
# CCRF-CEM leukemia = test system: CCRF-CEM leukemia
# EKVX NSCLC = test system: EKVX NSCLC
# M14 melanoma = test system: M14 melanoma
# MDA-MB-231 breast = test system: MDA-MB-231 breast
# 786-0 renal = test system: 786-0 renal
# HT29 colon = test system: HT29 colon
# HCT-116 colon = test system: HCT-116 colon
# HCT-15 colon = test system: HCT-15 colon
# OVCAR-3 ovarian = test system: OVCAR-3 ovarian
# CAKI-1 renal = test system: CAKI-1 renal
# HL-60(TB) leukemia = test system: HL-60(TB) leukemia
# MOLT-4 leukemia = test system: MOLT-4 leukemia
# MCF7 breast = test system: MCF7 breast
# NCI/ADR-RES ovarian = test system: NCI/ADR-RES ovarian
# MDA-MB-435 melanoma = test system: MDA-MB-435 melanoma
compound,measurement,setting,value
C=CC(=O)Nc1cccc(C)c1Nc1ncc2cc(-c3c(Cl)c(OC)cc(OC)c3Cl)ccc2n1,GI50,HOP-62 NSCLC,775 nM
same,TGI,HOP-62 NSCLC,2340 nM
same,GI50,OVCAR-4 ovarian,2780 nM
same,TGI,OVCAR-4 ovarian,14.3 µM
same,GI50,A498 renal,614 nM
same,TGI,A498 renal,2030 nM
same,GI50,SK-OV-3 ovarian,1690 nM
same,TGI,SK-OV-3 ovarian,17 µM
same,GI50,UACC-257 melanoma,1180 nM
same,TGI,UACC-257 melanoma,3.35 µM
same,GI50,HS 578T breast,1260 nM
same,TGI,HS 578T breast,3.18 µM
same,GI50,OVCAR-8 ovarian,1480 nM
same,TGI,OVCAR-8 ovarian,3000 nM
same,GI50,SK-MEL-2 melanoma,894 nM
same,TGI,SK-MEL-2 melanoma,2200 nM
same,GI50,TK-10 renal,1980 nM
same,TGI,TK-10 renal,5.92 µM
same,GI50,IGROV1 ovarian,2760 nM
same,TGI,IGROV1 ovarian,7.89 µM
same,GI50,COLO 205 colon,2010 nM
same,TGI,COLO 205 colon,12.2 µM
same,GI50,SF-268 CNS,1550 nM
same,TGI,SF-268 CNS,3.81 µM
same,GI50,SW-620 colon,2050 nM
same,TGI,SW-620 colon,6.31 µM
same,GI50,RXF 393 renal,573 nM
same,TGI,RXF 393 renal,1970 nM
same,GI50,HOP-92 NSCLC,2250 nM
same,TGI,HOP-92 NSCLC,6.44 µM
same,GI50,SNB-75 CNS,1120 nM
same,TGI,SNB-75 CNS,3.8 µM
same,GI50,SF-539 CNS,615 nM
same,TGI,SF-539 CNS,1930 nM
same,GI50,ACHN renal,2930 nM
same,TGI,ACHN renal,23.7 µM
same,GI50,PC-3 prostate,1010 nM
same,TGI,PC-3 prostate,2600 nM
same,GI50,K-562 leukemia,1390 nM
same,TGI,K-562 leukemia,3.21 µM
same,GI50,SF-295 CNS,2770 nM
same,TGI,SF-295 CNS,10.5 µM
same,GI50,MDA-MB-468 breast,207 nM
same,TGI,MDA-MB-468 breast,1600 nM
same,GI50,RPMI-8226 leukemia,276 nM
same,TGI,RPMI-8226 leukemia,1260 nM
same,GI50,NCI-H522 lung,1300 nM
same,TGI,NCI-H522 lung,3.01 µM
same,GI50,HCC-2998 colon,2000 nM
same,TGI,HCC-2998 colon,4.83 µM
same,GI50,BT-549 breast,843 nM
same,TGI,BT-549 breast,2440 nM
same,GI50,SR leukemia,348 nM
same,TGI,SR leukemia,1540 nM
same,GI50,SNB-19 CNS,2000 nM
same,TGI,SNB-19 CNS,7.72 µM
same,GI50,U251 glioblastoma,1520 nM
same,TGI,U251 glioblastoma,3.74 µM
same,GI50,UO-31 renal,2230 nM
same,TGI,UO-31 renal,6.74 µM
same,GI50,NCI-H460 NSCLC,717 nM
same,TGI,NCI-H460 NSCLC,2090 nM
same,GI50,OVCAR-5 ovarian,4.44 µM
same,TGI,OVCAR-5 ovarian,> 100 µM
same,GI50,NCI-H322M lung,2630 nM
same,TGI,NCI-H322M lung,9.02 µM
same,GI50,NCI-H226 lung,1110 nM
same,TGI,NCI-H226 lung,6.08 µM
same,GI50,UACC-62 melanoma,1750 nM
same,TGI,UACC-62 melanoma,4.9 µM
same,GI50,LOX IMVI melanoma,1380 nM
same,TGI,LOX IMVI melanoma,2740 nM
same,GI50,KM12 colon,1930 nM
same,TGI,KM12 colon,5.2 µM
same,GI50,A549 NSCLC,2120 nM
same,TGI,A549 NSCLC,7.94 µM
same,GI50,NCI-H23 lung,1840 nM
same,TGI,NCI-H23 lung,5.12 µM
same,GI50,MALME-3M melanoma,2530 nM
same,TGI,MALME-3M melanoma,9.94 µM
same,GI50,SN12C renal,2330 nM
same,TGI,SN12C renal,7.56 µM
same,GI50,SK-MEL-5 melanoma,1460 nM
same,TGI,SK-MEL-5 melanoma,3.38 µM
same,GI50,SK-MEL-28 melanoma,2590 nM
same,TGI,SK-MEL-28 melanoma,8.3 µM
same,GI50,CCRF-CEM leukemia,1340 nM
same,TGI,CCRF-CEM leukemia,2650 nM
same,GI50,EKVX NSCLC,1840 nM
same,TGI,EKVX NSCLC,4.55 µM
same,GI50,M14 melanoma,3.57 µM
same,TGI,M14 melanoma,12.9 µM
same,GI50,MDA-MB-231 breast,1890 nM
same,TGI,MDA-MB-231 breast,5.64 µM
same,GI50,786-0 renal,1290 nM
same,TGI,786-0 renal,5.33 µM
same,GI50,HT29 colon,2440 nM
same,TGI,HT29 colon,9.75 µM
same,GI50,HCT-116 colon,1730 nM
same,TGI,HCT-116 colon,3.89 µM
same,GI50,HCT-15 colon,1940 nM
same,TGI,HCT-15 colon,4.93 µM
same,GI50,OVCAR-3 ovarian,1100 nM
same,TGI,OVCAR-3 ovarian,2940 nM
same,GI50,CAKI-1 renal,2060 nM
same,TGI,CAKI-1 renal,13.6 µM
same,GI50,HL-60(TB) leukemia,1100 nM
same,TGI,HL-60(TB) leukemia,2380 nM
same,GI50,MOLT-4 leukemia,736 nM
same,TGI,MOLT-4 leukemia,2130 nM
same,GI50,MCF7 breast,1370 nM
same,TGI,MCF7 breast,> 100 µM
same,GI50,NCI/ADR-RES ovarian,2030 nM
same,TGI,NCI/ADR-RES ovarian,4.95 µM
same,GI50,MDA-MB-435 melanoma,2170 nM
same,TGI,MDA-MB-435 melanoma,5.35 µM
